Here are results for 19 molecules from patent publication US9539260B2, “Dihydro-benzo-oxazine and dihydro-pyrido-oxazine derivatives” (Novartis AG, priority 2012, dated 2017).

Bounds are passed on as bounds.

The IC50 is the concentration that inhibits the measured activity by half. A lower IC50 goes with greater potency.

The target in assay [1] is PI3K alpha (Homo sapiens (Human), UniProt P42336). The assay can be described thus: Enzymatic PI3K alpha isoform inhibition (lipid kinase activity, Kinase-Glo luminescence). The settings on record: Enzymatic assay. Format: biochemical. The method in brief: (§1)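 ATP-depletion format: 10 nM PI3K with 5 μg/mL phosphatidylinositol and 2 μM ATP, run to ~50% ATP consumption, then Kinase-Glo added and remaining ATP read by luminescence after 5 min. IC50 from 4-parameter logistic fit, typically over 8 concentrations 10–0.003 μM.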
Sequence of PI3K alpha (P42336 other isoform, or with tags, fused parts or gaps): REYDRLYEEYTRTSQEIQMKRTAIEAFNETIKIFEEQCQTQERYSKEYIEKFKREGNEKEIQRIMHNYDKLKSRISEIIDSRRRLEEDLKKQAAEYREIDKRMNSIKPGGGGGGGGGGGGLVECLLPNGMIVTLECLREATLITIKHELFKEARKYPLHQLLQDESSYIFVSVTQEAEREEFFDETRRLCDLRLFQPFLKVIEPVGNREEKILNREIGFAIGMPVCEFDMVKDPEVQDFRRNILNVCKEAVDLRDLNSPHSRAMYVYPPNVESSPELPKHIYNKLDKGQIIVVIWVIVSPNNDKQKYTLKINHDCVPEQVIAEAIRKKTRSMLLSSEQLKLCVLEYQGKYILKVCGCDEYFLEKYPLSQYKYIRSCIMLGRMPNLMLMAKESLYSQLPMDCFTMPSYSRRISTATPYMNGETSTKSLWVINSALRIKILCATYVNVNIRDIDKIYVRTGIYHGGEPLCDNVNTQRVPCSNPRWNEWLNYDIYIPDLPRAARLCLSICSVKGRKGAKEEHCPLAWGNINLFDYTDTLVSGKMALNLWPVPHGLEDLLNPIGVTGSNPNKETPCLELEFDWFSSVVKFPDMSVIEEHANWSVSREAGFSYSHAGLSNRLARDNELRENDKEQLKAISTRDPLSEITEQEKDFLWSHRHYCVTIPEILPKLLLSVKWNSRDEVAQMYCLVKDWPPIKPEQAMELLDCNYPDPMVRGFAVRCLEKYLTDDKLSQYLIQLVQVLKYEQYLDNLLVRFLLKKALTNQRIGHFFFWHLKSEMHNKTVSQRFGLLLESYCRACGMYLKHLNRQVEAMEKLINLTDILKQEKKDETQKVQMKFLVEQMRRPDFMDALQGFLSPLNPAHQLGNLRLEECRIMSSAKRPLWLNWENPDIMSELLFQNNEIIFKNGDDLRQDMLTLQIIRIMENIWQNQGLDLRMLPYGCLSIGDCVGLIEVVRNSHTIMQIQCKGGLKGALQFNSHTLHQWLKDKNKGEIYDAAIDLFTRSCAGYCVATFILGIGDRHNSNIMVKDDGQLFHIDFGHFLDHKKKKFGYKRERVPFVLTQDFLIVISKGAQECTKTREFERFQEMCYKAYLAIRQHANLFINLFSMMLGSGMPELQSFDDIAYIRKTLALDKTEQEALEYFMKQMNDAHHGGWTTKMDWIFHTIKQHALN

Assay [2] has as its target PI3K delta (Homo sapiens (Human), UniProt O00329). Briefly: Enzymatic PI3K delta isoform inhibition (lipid kinase activity, Kinase-Glo luminescence). Format: biochemical. The note with it: Enzymatic assay. The method in brief: as §1
In general terms: In Kinase-Glo more light means more ATP remaining.

Sequence of PI3K delta (O00329 other isoform, or with tags, fused parts or gaps linker GGGGGG): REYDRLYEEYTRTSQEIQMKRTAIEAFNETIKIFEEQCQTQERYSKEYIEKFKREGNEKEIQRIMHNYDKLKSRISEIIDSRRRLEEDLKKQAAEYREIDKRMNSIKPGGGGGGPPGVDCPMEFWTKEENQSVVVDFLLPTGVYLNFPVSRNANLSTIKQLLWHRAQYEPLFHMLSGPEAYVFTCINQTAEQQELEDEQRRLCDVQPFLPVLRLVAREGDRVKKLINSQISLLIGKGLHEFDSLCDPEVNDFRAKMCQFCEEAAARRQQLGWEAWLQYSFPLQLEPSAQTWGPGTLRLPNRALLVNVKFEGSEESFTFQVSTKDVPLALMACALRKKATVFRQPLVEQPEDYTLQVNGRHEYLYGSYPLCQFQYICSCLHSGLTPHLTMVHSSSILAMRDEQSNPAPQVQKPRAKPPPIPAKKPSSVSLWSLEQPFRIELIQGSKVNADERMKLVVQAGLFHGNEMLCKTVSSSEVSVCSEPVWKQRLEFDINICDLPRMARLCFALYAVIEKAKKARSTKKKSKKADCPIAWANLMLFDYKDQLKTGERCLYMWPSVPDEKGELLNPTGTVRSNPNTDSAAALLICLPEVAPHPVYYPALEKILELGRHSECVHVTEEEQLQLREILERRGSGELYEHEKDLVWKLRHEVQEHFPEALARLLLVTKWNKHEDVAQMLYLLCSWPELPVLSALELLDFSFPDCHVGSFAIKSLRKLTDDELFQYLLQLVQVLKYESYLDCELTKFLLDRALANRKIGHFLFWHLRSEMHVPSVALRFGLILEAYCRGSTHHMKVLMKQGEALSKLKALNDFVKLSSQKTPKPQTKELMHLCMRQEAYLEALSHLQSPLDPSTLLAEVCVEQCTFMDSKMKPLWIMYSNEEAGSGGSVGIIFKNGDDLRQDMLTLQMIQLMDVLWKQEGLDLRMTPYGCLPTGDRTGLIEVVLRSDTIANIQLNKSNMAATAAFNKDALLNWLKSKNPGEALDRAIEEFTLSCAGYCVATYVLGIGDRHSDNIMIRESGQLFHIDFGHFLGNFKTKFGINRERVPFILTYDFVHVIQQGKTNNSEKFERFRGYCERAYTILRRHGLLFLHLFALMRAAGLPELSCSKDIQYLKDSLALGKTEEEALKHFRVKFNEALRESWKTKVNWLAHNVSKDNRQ

Turning to `COc1ccc(N2CCOc3ccc(O[C@H]4CCN(C(=O)CN5CCOCC5)C4)cc32)cn1` [Example D2, 1-{(S)-3-[4-(6-Methoxy-pyridin-3-yl)-3,4-dihydro-2H-benzo[1,4]oxazin-6-yloxy]-pyrrolidin-1-yl}-2-morpholin-4-yl-ethanone], the IC50 turned out to be 2740 nM in assay [1] and 149 nM in assay [2].
`COc1ccc(N2CCOc3ccc(O[C@H]4CCN(C(=O)CN(C)C)C4)cc32)cn1` [Example D3, 2-Dimethylamino-1-{(S)-3-[4-(6-methoxy-pyridin-3-yl)-3,4-dihydro-2H-benzo[1,4]oxazin-6-yloxy]-pyrrolidin-1-yl}-ethanone]: the IC50 in assay [1] turned out to be 4420 nM; in assay [2], 219 nM.
For `COc1ncc(N2CCOc3ccc(O[C@H]4CCN(C(=O)C5CCN(C(C)=O)CC5)C4)cc32)cc1C#N` [Example D5, 5-{6-[(S)-1-(1-Acetyl-piperidine-4-carbonyl)-pyrrolidin-3-yloxy]-2,3-dihydro-benzo[1,4]oxazin-4-yl}-2-methoxy-nicotinonitrile] the same measures were 802 nM and 42 nM.
Regarding `COc1ncc(N2CCOc3ccc(O[C@H]4CCN(C(=O)CN(C)C)C4)cc32)cc1C#N` [Example D6, 5-{6-[(S)-1-(2-Dimethylamino-acetyl)-pyrrolidin-3-yloxy]-2,3-dihydro-benzo[1,4]oxazin-4-yl}-2-methoxy-nicotinonitrile], the IC50 came to 650 nM in assay [1] and 9 nM in assay [2].
For the molecule `COc1ncc(N2CCOc3ccc(O[C@H]4CCN(C(=O)CC(C)(C)C)C4)cc32)cc1C#N` [Example D9, 5-{6-[(S)-1-(3,3-Dimethyl-butyryl)-pyrrolidin-3-yloxy]-2,3-dihydro-benzo[1,4]oxazin-4-yl}-2-methoxy-nicotinonitrile], the IC50 was 494 nM in assay [1] and 15 nM in assay [2].
The like results for `COc1ncc(N2CCOc3ccc(O[C@H]4CCN(C(=O)CC(C)C)C4)cc32)cc1C#N` [Example D10, 2-Methoxy-5-{6-[(S)-1-(3-methyl-butyryl)-pyrrolidin-3-yloxy]-2,3-dihydro-benzo[1,4]oxazin-4-yl}-nicotinonitrile] were, in that order, 385 nM and 62 nM.
As to `COC(=O)N1CC[C@H](Oc2ccc3c(c2)N(c2cnc(OC)c(C#N)c2)CCO3)C1` [Example D11, (S)-3-[4-(5-Cyano-6-methoxy-pyridin-3-yl)-3,4-dihydro-2H-benzo[1,4]oxazin-6-yloxy]-pyrrolidine-1-carboxylic acid methyl ester], the IC50 in assay [1] was determined as 442 nM; in assay [2] it was 19 nM.
For `COCC(=O)N1CC[C@H](Oc2ccc3c(c2)N(c2cnc(OC)c(C#N)c2)CCO3)C1` [Example D12, 2-Methoxy-5-{6-[(S)-1-(2-methoxy-acetyl)-pyrrolidin-3-yloxy]-2,3-dihydro-benzo[1,4]oxazin-4-yl}-nicotinonitrile] the same measures were 142 nM and under 3 nM.
For `COc1ncc(N2CCOc3ccc(O[C@H]4CCN(C(=O)C5CCCCC5)C4)cc32)cc1C#N` [Example D13, 5-[6-((S)-1-Cyclohexanecarbonyl-pyrrolidin-3-yloxy)-2,3-dihydro-benzo[1,4]oxazin-4-yl]-2-methoxy-nicotinonitrile], the IC50 was 522 nM in assay [1] and 5 nM in assay [2].
For the molecule `COc1ncc(N2CCOc3ccc(O[C@H]4CCN(C(=O)C(C)(C)O)C4)cc32)cc1C#N` [Example D15, 5-{6-[(S)-1-(2-Hydroxy-2-methyl-propionyl)-pyrrolidin-3-yloxy]-2,3-dihydro-benzo[1,4]oxazin-4-yl}-2-methoxy-nicotinonitrile], the IC50 in assay [1] stood at 711 nM; in assay [2] it was 58 nM.
`COc1ncc(N2CCOc3ccc(O[C@H]4CCN(C(=O)C5CCS(=O)(=O)CC5)C4)cc32)cc1C#N` [Example D16, 5-{6-[(S)-1-(1,1-Dioxo-hexahydro-1lambda*6*-thiopyran-4-carbonyl)-pyrrolidin-3-yloxy]-2,3-dihydro-benzo[1,4]oxazin-4-yl}-2-methoxy-nicotinonitrile]: the values for the IC50 in assay [1] and in assay [2] were 503 nM and 7 nM, respectively.
For `COc1ncc(N2CCOc3ccc(O[C@H]4CCN(C(=O)c5ccc(=O)n(C)c5)C4)cc32)cc1C#N` [Example D17, 2-Methoxy-5-{6-[(S)-1-(1-methyl-6-oxo-1,6-dihydro-pyridine-3-carbonyl)-pyrrolidin-3-yloxy]-2,3-dihydro-benzo[1,4]oxazin-4-yl}-nicotinonitrile] the same measures were 705 nM and 12 nM.
`COc1ncc(N2CCOc3ccc(O[C@H]4CCN(C(=O)c5cocn5)C4)cc32)cc1C#N` [Example D18, 2-Methoxy-5-{6-[(S)-1-(oxazole-4-carbonyl)-pyrrolidin-3-yloxy]-2,3-dihydro-benzo[1,4]oxazin-4-yl}-nicotinonitrile]: the figures for the IC50 in assay [1] and in assay [2] were 281 nM and 19 nM, respectively.
`COc1ncc(N2CCOc3ccc(O[C@H]4CCN(C(=O)c5ccn(C)c(=O)c5)C4)cc32)cc1C#N` [Example D19, 2-Methoxy-5-{6-[(S)-1-(1-methyl-2-oxo-1,2-dihydro-pyridine-4-carbonyl)-pyrrolidin-3-yloxy]-2,3-dihydro-benzo[1,4]oxazin-4-yl}-nicotinonitrile]: the values for the IC50 in assay [1] and in assay [2] were 273 nM and 13 nM, respectively.
Take `COc1ncc(N2CCOc3ccc(O[C@H]4CCN(C(=O)c5ccc(=O)[nH]c5)C4)cc32)cc1C#N` [Example D20, 2-Methoxy-5-{6-[(S)-1-(6-oxo-1,6-dihydro-pyridine-3-carbonyl)-pyrrolidin-3-yloxy]-2,3-dihydro-benzo[1,4]oxazin-4-yl}-nicotinonitrile]: the IC50 was found to be 206 nM in assay [1] and 7 nM in assay [2].
For the molecule `COc1ncc(N2CCOc3ccc(O[C@H]4CCN(C(=O)c5cc[nH]c(=O)c5)C4)cc32)cc1C#N` [Example D21, 2-Methoxy-5-{6-[(S)-1-(2-oxo-1,2-dihydro-pyridine-4-carbonyl)-pyrrolidin-3-yloxy]-2,3-dihydro-benzo[1,4]oxazin-4-yl}-nicotinonitrile], the IC50 in assay [1] stood at 519 nM; in assay [2], 41 nM.
In the case of `COc1ncc(N2CCOc3ccc(O[C@H]4CON(C(=O)C5CCOCC5)C4)cc32)cc1C#N` [Example D22, 2-Methoxy-5-{6-[(R)-2-(tetrahydro-pyran-4-carbonyl)-isoxazolidin-4-yloxy]-2,3-dihydro-benzo[1,4]oxazin-4-yl}-nicotinonitrile], the IC50 in assay [1] was determined as 1020 nM; in assay [2], 24 nM.
In the case of `CCC(=O)N1C[C@@H](Oc2ccc3c(c2)N(c2cnc(OC)c(C#N)c2)CCO3)CO1` [Example D23, 2-Methoxy-5-[6-((R)-2-propionyl-isoxazolidin-4-yloxy)-2,3-dihydro-benzo[1,4]oxazin-4-yl]-nicotinonitrile], the IC50 came out at 2530 nM in assay [1] and 214 nM in assay [2].
Consider `COc1ncc(N2CCOc3ccc(O[C@@H]4CON(C(=O)C5CCOCC5)C4)cc32)cc1C#N` [Example D24, 2-Methoxy-5-{6-[(S)-2-(tetrahydro-pyran-4-carbonyl)-isoxazolidin-4-yloxy]-2,3-dihydro-benzo[1,4]oxazin-4-yl}-nicotinonitrile], for which the IC50 was over 9100 nM in assay [1] and 7080 nM in assay [2].
